Reference: patent EP0126849A1, “Pharmacologically active N-amino hydantoin derivatives, their synthesis and intermediates” (THE WELLCOME FOUNDATION LIMITED, priority 1983, dated 1984)
≈ marks a conversion by molar mass, not a printed value.

Legend:
platelet aggregation = experiment: Inhibition of platelet aggregation in human platelet-rich plasma (Born-type aggregometer, ADP or other aggregating agent); type: cell-based; details: for IC50: Homo sapiens, Platelet, 1 min, 1 min incubation at 37°C before aggregating agent, read-out: IC50; for IC50 / Potency relative to PGI2: human PRP; for Potency relative to PGI2: 1 min incubation, PGI2 = 1; for Increase on Incubation (min) 5: increase in potency after 5 min incubation in PRP; for Increase on Incubation (min) 10: increase in potency after 10 min incubation in PRP
Experimental: Human blood was freshly collected into siliconized (Siloclad; Clay Adams) plastic (Sterilin Ltd.) vessels containing trisodium citrate (3.15%; 0.1 volume with 0.9 volume blood) and centrifuged (200 g for 15 min) at room temperature. The platelet-rich plasma (PRP) was withdrawn into plastic containers and kept at room temperature. Inhibition of […] prior to addition of sufficient adenosine diphosphate (ADP) or other aggregating agent to just cause a non-reversing control aggregation. Dose-inhibition curves were constructed for each compound and the ID50 (dose causing 50% inhibition) was calculated as the dose required to reduce the aggregation to 50% of its control amplitude. […] For comparison, also given are the results upon administration of 5-(6-carboxyhexyl)-1-(3-cyclohexyl-3-hydroxypropyl)hydantoin (Compound X) which is disclosed in UK Specification 1,595,694. -
In this and subsequent biological examples, where a compound number refers to a single diastereoisomer, a mixture of diastereoisomers is indicated by two compound numbers separated by /.

[1] = test system: rabbit platelet aggregation; experiment: Ex vivo rabbit platelet aggregation after i.v. infusion of the hydantoin (ADP 20 µM); type: in vivo, rabbits; details: i.v. infusion for 15 min, blood sample 10 min after start of infusion
Experimental: Male rabbits (2-2.5 kg body weight) were anaesthetized with sodium pentobarbitone (30 mg/kg, i.v. followed by maintenance doses of 3mg/kg) and systemic arterial blood pressure (BP) was recorded from a cannula filled with
heparinized saline (5 units/ml) in a carotid artery; no heparin was administered to the animal. Hydantoins were administered via a cannula in a femoral vein. Blood samples (1.5 ml) were slowly collected into a plastic syringe containing tri-sodium citrate (3.18%, 0.15 ml) from a cannula inserted into a femoral artery, shaken gently and transferred to an Eppendorf plastic tube and spun in a modified Eppendorf centrifuge for 2 sec (Model 5412, maximum centrifugal force 10,000 x g). The PRP was collected and a 0.35 ml aliquot was transferred to the aggregometer and incubated at 37°C for 1 minute prior to addition of sufficient ADP (20 µM) to produce near-maximal aggregation. The time-interval between removal of blood samples and the transference of the PRP to the aggregometer was less than 1.5 min.
Blood samples were removed at 10 min. intervals once the BP of the rabbit had reached steady resting levels, 10-20 min. following the preparative surgical procedures. After three control blood samples had been prepared and the control aggregation of the platelets measured, the hydantoin was infused intravenously for 15 min from a Braun slow-infusion apparatus. Blood samples were collected 10 min after the start of the infusion. Two further 10 min. samples post-infusion were collected prior to commencing further infusions.
The following results list values of ED50 and change in blood pressure. For comparison, also given are the results obtained upon administration of PGIZ and Compound X.

[2] = test system: systemic arterial blood pressure (BP); experiment: Concurrent change in systemic arterial blood pressure in anaesthetized rabbits; type: in vivo; details: for Δ BP: anaesthetized rabbit, i.v. infusion, at the ED50 dose; for blood pressure depressant activity: at the ED50 doses, rabbit, stated in words
Experimental: Male rabbits (2-2.5 kg body weight) were anaesthetized with sodium pentobarbitone (30 mg/kg, i.v. followed by maintenance doses of 3mg/kg) and systemic arterial blood pressure (BP) was recorded from a cannula filled with heparinized saline (5 units/ml) in a carotid artery; no heparin was administered to the animal. Hydantoins were administered via a cannula in a femoral vein. Blood samples (1.5 ml) were slowly collected into a plastic syringe containing tri-sodium citrate (3.18%, 0.15 ml) from a cannula inserted into a femoral artery, shaken gently and transferred to an Eppendorf plastic tube and spun in a modified Eppendorf centrifuge for 2 sec (Model 5412, maximum centrifugal force 10,000 x g). The PRP was collected and a 0.35 ml aliquot was transferred to the aggregometer and incubated at 37°C for 1 minute prior to addition of sufficient ADP (20 µM) to produce near-maximal aggregation. The time-interval between removal of blood samples and the transference of the PRP to the aggregometer was less than 1.5 min. […] After three control blood samples had been prepared and the control aggregation of the platelets measured, the hydantoin was infused intravenously for 15 min from a Braun slow-infusion apparatus. Blood samples were collected 10 min after the start of the infusion. Two further 10 min. samples post-infusion were collected prior to commencing further infusions. The following results list values of ED50 and change in blood pressure. For comparison, also given are the results obtained upon administration of PGIZ and Compound X.

[3] = test system: mean systemic arterial blood pressure (BP); experiment: Cardiovascular actions in rats: fall in blood pressure and duration of the hypotensive effect; type: in vivo, male Wistar rats; details: for Fall in BP Relative Potency PGE1 / Fall in BP Relative Potency PGI2: anaesthetized rat, i.v. injection; for Fall in BP Relative Potency PGE1: potency ratio against PGE1; for Fall in BP Relative Potency PGI2: potency ratio against PGI2; for Duration t½: time from peak hypotensive response to recovery to half its peak, rat i.v.
Experimental: Anaesthesia was induced in male Wistar rats (250-300 g body weight) with sodium pentobarbitone (30 mg kg^-1, i.v.) and supplemented (3 mg kg^-1) when required. Arterial pressure was recorded from a cannulated femoral artery and heart rate derived from the arterial pulse. Rectal temperature was maintained at 37°C by thermistor-controlled radiant heat. Each compound was injected into a femoral vein in a volume of 0.25 ml and flushed in with 0.2 ml of saline (0.9% w/v). Dose-response relationships for the fall in mean systemic arterial blood pressure (BP) with the hydantoins were constructed and compared to those obtained with PGI2 and PGE, in the same animal, and a potency ratio calculated. […] Figures for Compound X and PGI2 are listed for comparison.

B.P. = experiment: Cardiovascular studies in the dog: vasodepressor potency and duration; type: in vivo, Dogs; details: i.v. bolus
Experimental: Dogs (10-15 kg body weight) were anaesthetized with chloralose (80 mg/kg i.v.) and maintained with subcutaneous injections of pentobarbitone (3 mg/kg). Drugs were administered via a femoral vein by bolus injection and B.P. was recorded from the right femoral artery. Results give vasodepressor potency and t1 2 duration. Figures for Compound X are provided for comparison.

[4] = test system: acid-ethanol induced gastric lesions; experiment: Inhibition of acid-ethanol induced gastric lesions in rats (cytoprotection); type: in vivo; details: rat, oral
Experimental: The inhibition of acid-ethanol induced gastric lesions in rats (cytoprotection) was measured for various doses of orally administered hydantoin. Figures for compound X are given for comparison.

[5] = Dose 1.25 ug kg^-1, duration of vasodepressor effect

IC50 (platelet aggregation) | Increase on Incubation (min) 5 (platelet aggregation) | Increase on Incubation (min) 10 (platelet aggregation) | SMILES | Potency relative to PGI2 (platelet aggregation) | ED50 [1] | Δ BP [2] | blood pressure depressant activity [2] | Fall in BP Relative Potency PGE1 [3] | Fall in BP Relative Potency PGI2 [3] | Duration t½ [3] | Δ BP (B.P.; Dose 0.625 ug kg^-1) | t1/2 (B.P.; Dose 0.625 ug kg^-1, duration of vasodepressor effect) | Δ BP (B.P.; Dose 1.25 ug kg^-1) | t1/2 (B.P.; [5]) | % inhibition ([4]; Dose 10 μg kg^-1) | % inhibition ([4]; Dose 25 μg kg^-1) | % inhibition ([4]; Dose 50 μg kg^-1) | Δ BP (B.P.; Dose 2.5 ug kg^-1) | t1/2 (B.P.; Dose 2.5 ug kg^-1, duration of vasodepressor effect) | % inhibition ([4]; Dose 5 μg kg^-1)
2 ng/mL (≈ 5.44 nM) | x5 | x20 | O=C(O)CCCCCCC1C(=O)NC(=O)N1N=CC(O)C1CCCCC1 (single isomer, unassigned) [Compound No. 6, 5-(6-carboxyhe-xyl)-1-(2-cyclohexyl-2-hydroxyethylideneamino)hydantoin] | 0.30 | 0.15 µg/kg/min | 0 mmHg | no significant blood pressure depressant activity | 0.5 | 0.041 | 17.0 min | -54 mm Hg | 60 min | -65 mm Hg | >60 min | 31 ± 20% | 50 ± 21% | 69 ± 8% |  |  | 
16 ng/mL (≈ 43.5 nM) | x7 | x20 | O=C(O)CCCCCCC1C(=O)NC(=O)N1N=CC(O)C1CCCCC1 (stereo not shown) [Compound No. 3, 5-(6-carboxyhexyl)-1-(2-cyclohexyl-2-hydroxy-ethylideneamino)hydantoin] | 0.02 | 2.0 µg/kg/min | 0 mmHg | no significant blood pressure depressant activity | 0.324 | 0.027 | 11.0 min |  |  |  |  |  |  |  |  |  | 
1.5 ng/mL (≈ 4.07 nM) | x2 | x3 | O=C(O)CCCCCCC1C(=O)NC(=O)N1CCC(O)C1CCCCC1 (stereo not shown) [Compound X, 5-(6-carboxyhexyl)-1-(3-cyclohexyl-3-hydroxypropyl)hydantoin, reference compound] | 0.21 | 3.3 µg/kg/min | -5 mmHg |  | 0.72 | 0.06 | 4.0 min |  |  | -45 mm Hg | 2.8 min | 80 ± 9% | 89 ± 6% |  | -56 mm Hg | 6.2 min | 46 ± 26%
